Experiments:
Assay type in all cases: in vivo
[1] = system: barnyardgrass (Echinochloa crus-galli); test: Test A pre-/postemergence: barnyardgrass; settings: for Barnyardgrass plant response rating: Postemergence; for Plant response rating, Barnyardgrass: Preemergence
Summary of the method: (§1)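 Soil medium was loam blended with sand; treatments pre- and postemergence were applied concurrently, postemergence at one- to two-leaf stage. Approximately ten days in greenhouse preceded visual comparison with untreated controls, scored 0 (no effect) to 100 (complete control).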

[2] = system: crabgrass, large (large crabgrass, Digitaria sanguinalis); test: Test A pre-/postemergence: crabgrass, large; settings: for Crabgrass, Large plant response rating: Postemergence; for Plant response rating, Crabgrass, Large: Preemergence
Summary of the method: as §1

[3] = system: foxtail, giant (giant foxtail, Setaria faberii); test: Test A pre-/postemergence: foxtail, giant; settings: for Foxtail, Giant plant response rating: Postemergence; for Plant response rating, Foxtail, Giant: Preemergence
Summary of the method: as §1

[4] = system: morningglory (Ipomoea spp.); test: Test A pre-/postemergence: morningglory; settings: for Morningglory plant response rating: visual rating on 0 to 100 scale (0 no effect, 100 complete control), approximately ten days
Summary of the method: as §1

[5] = system: velvetleaf (Abutilon theophrasti); test: Test A pre-/postemergence: velvetleaf
Summary of the method: as §1

[6] = system: ryegrass, Italian (Italian ryegrass, Lolium multiflorum); test: Test C pre-/postemergence: ryegrass, Italian
Summary of the method: (§2)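 Preemergence on seeds in loam/sand, postemergence on 2–18 cm (1–4-leaf) plants in peat-based medium; compounds in non-phytotoxic solvent with surfactant. After 13–15 days in greenhouse, visual rating versus controls, 0 (no effect) to 100 (complete control).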

wild oat (Avena fatua) = test: Test C pre-/postemergence: wild oat
Summary of the method: as §2

[7] = system: galium (catchweed bedstraw, Galium aparine); test: Test C pre-/postemergence: galium
Summary of the method: as §2

[8] = system: large crabgrass (Digitaria sanguinalis); test: Test C pre-/postemergence: large crabgrass
Summary of the method: as §2

[9] = system: nutsedge, yellow (yellow nutsedge, Cyperus esculentus); test: Test C pre-/postemergence: nutsedge, yellow
Summary of the method: as §2

[10] = system: chickweed (common chickweed, Stellaria media); test: Test C postemergence: chickweed
Summary of the method: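 Pot-grown plants in peat/vermiculite medium sprayed postemergence at 2–18 cm height (1- to 4-leaf stage). Kept in greenhouse 13 to 15 days, then visually rated against untreated controls on a 0–100 scale (0 = no effect, 100 = complete control).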

[11] = 125 g ai/ha, 0 to 100 scale, 0 is no effect, 100 is complete control
[12] = 500 g ai/ha, visual rating on 0 to 100 scale (0 no effect, 100 complete control), approximately ten days
[13] = 125 g ai/ha, 0 to 100 scale where 0 is no effect and 100 is complete control
[14] = 500 g ai/ha, 0 to 100 scale (0 no effect, 100 complete control)
[15] = Postemergence, 125 g ai/ha, 0 to 100 scale, 0 is no effect, 100 is complete control
[16] = Preemergence, 125 g ai/ha, 0 to 100 scale where 0 is no effect and 100 is complete control
[17] = Preemergence, 500 g ai/ha, 0 to 100 scale (0 no effect, 100 complete control)
[18] = Postemergence, 31 g ai/ha, scale 0 to 100 (0 no effect, 100 complete control)
[19] = Postemergence, 62 g ai/ha, scale 0 to 100 (0 no effect, 100 complete control)
[20] = Postemergence, 125 g ai/ha, scale 0 to 100, 0 no effect, 100 complete control
[21] = Postemergence, 250 g ai/ha, scale 0 to 100
[22] = 31 g ai/ha, scale 0 to 100 (0 no effect, 100 complete control)
[23] = 62 g ai/ha, scale 0 to 100 (0 no effect, 100 complete control)
[24] = 125 g ai/ha, scale 0 to 100, 0 no effect, 100 complete control
[25] = Preemergence, 31 g ai/ha, scale of 0 to 100, 0 is no effect, 100 is complete control
[26] = Preemergence, 62 g ai/ha, scale of 0 to 100, 0 is no effect, 100 is complete control
[27] = Preemergence, 125 g ai/ha, scale 0 to 100, 0 no effect, 100 complete control
[28] = Preemergence, 250 g ai/ha, scale 0 to 100, 0 no effect, 100 complete control

Cc1nn(-c2ccnc(Cl)c2)nc1Cc1ccnc(C(F)(F)F)c1 [Compound 141]
Barnyardgrass plant response rating [1, 11]: 80 | Barnyardgrass plant response rating [1, 12]: 90 | Plant response rating, Barnyardgrass [1, 13]: 40 | Plant response rating, Barnyardgrass [1, 14]: 100 | Crabgrass, Large plant response rating [2, 11]: 90 | Crabgrass, Large plant response rating [2, 12]: 90 | Plant response rating, Crabgrass, Large [2, 13]: 100 | Plant response rating, Crabgrass, Large [2, 14]: 100 | Foxtail, Giant plant response rating [3, 11]: 90 | Foxtail, Giant plant response rating [3, 12]: 90 | Plant response rating, Foxtail, Giant [3, 13]: 100 | Plant response rating, Foxtail, Giant [3, 14]: 100 | Plant response rating, Morningglory [4, 15]: 80 | Morningglory plant response rating ([4]; Postemergence, 500 g ai/ha): 90 | Plant response rating, Morningglory [4, 16]: 30 | Plant response rating, Morningglory [4, 17]: 60 | Plant response rating, Velvetleaf [5, 15]: 70 | Velvetleaf plant response rating ([5]; Postemergence, 500 g ai/ha, visual rating on 0 to 100 scale (0 no effect, 100 complete control), approximately ten days): 90 | Plant response rating, Velvetleaf [5, 16]: 20 | Plant response rating, Velvetleaf [5, 17]: 60 | Plant response rating, Ryegrass, Italian [6, 18]: 15 | Plant response rating, Ryegrass, Italian [6, 19]: 30 | Plant response rating, Ryegrass, Italian [6, 20]: 50 | Plant response rating, Ryegrass, Italian [6, 21]: 70 | Plant response rating, Oat, Wild (wild oat (Avena fatua); [18]): 10 | Plant response rating, Oat, Wild (wild oat (Avena fatua); [19]): 15 | Plant response rating, Oat, Wild (wild oat (Avena fatua); [20]): 45 | Plant response rating, Oat, Wild (wild oat (Avena fatua); [21]): 70 | Plant response rating, Galium [7, 18]: 85 | Plant response rating, Galium [7, 19]: 85 | Plant response rating, Galium [7, 20]: 90 | Plant response rating, Galium [7, 21]: 90 | Plant response rating, Crabgrass, Large [8, 18]: 20 | Plant response rating, Crabgrass, Large [8, 19]: 55 | Plant response rating, Crabgrass, Large [8, 20]: 80 | Plant response rating, Crabgrass, Large [8, 21]: 95 | Plant response rating, Nutsedge, Yellow [9, 18]: 0 | Plant response rating, Nutsedge, Yellow [9, 19]: 10 | Plant response rating, Nutsedge, Yellow [9, 20]: 15 | Plant response rating, Nutsedge, Yellow [9, 21]: 15 | Plant response rating, Chickweed [10, 22]: 80 | Plant response rating, Chickweed [10, 23]: 90 | Plant response rating, Chickweed [10, 24]: 98 | Plant response rating, Chickweed ([10]; 250 g ai/ha, scale 0 to 100): 100

Cc1nn(-c2ccc(C(F)(F)F)c(F)c2)nc1Oc1ccnc(C(F)(F)F)c1 [Compound 148]
Barnyardgrass plant response rating [1, 11]: 80 | Barnyardgrass plant response rating [1, 12]: 90 | Plant response rating, Barnyardgrass [1, 13]: 90 | Plant response rating, Barnyardgrass [1, 14]: 100 | Crabgrass, Large plant response rating [2, 11]: 80 | Crabgrass, Large plant response rating [2, 12]: 80 | Plant response rating, Crabgrass, Large [2, 13]: 100 | Plant response rating, Crabgrass, Large [2, 14]: 100 | Foxtail, Giant plant response rating [3, 11]: 80 | Foxtail, Giant plant response rating [3, 12]: 80 | Plant response rating, Foxtail, Giant [3, 13]: 100 | Plant response rating, Foxtail, Giant [3, 14]: 100 | Plant response rating, Morningglory [4, 15]: 80 | Morningglory plant response rating ([4]; Postemergence, 500 g ai/ha): 90 | Plant response rating, Morningglory [4, 16]: 40 | Plant response rating, Morningglory [4, 17]: 90 | Plant response rating, Velvetleaf [5, 15]: 100 | Plant response rating, Velvetleaf [5, 16]: 20 | Plant response rating, Velvetleaf [5, 17]: 70 | Plant response rating, Ryegrass, Italian [6, 18]: 10 | Plant response rating, Ryegrass, Italian [6, 19]: 35 | Plant response rating, Ryegrass, Italian [6, 20]: 60 | Plant response rating, Ryegrass, Italian [6, 21]: 65 | Plant response rating, Ryegrass, Italian [6, 25]: 5 | Plant response rating, Ryegrass, Italian [6, 26]: 60 | Plant response rating, Ryegrass, Italian [6, 27]: 60 | Plant response rating, Ryegrass, Italian [6, 28]: 90 | Plant response rating, Oat, Wild (wild oat (Avena fatua); [18]): 15 | Plant response rating, Oat, Wild (wild oat (Avena fatua); [19]): 45 | Plant response rating, Oat, Wild (wild oat (Avena fatua); [20]): 80 | Plant response rating, Oat, Wild (wild oat (Avena fatua); [21]): 90 | Plant response rating, Oat, Wild (wild oat (Avena fatua); [25]): 35 | Plant response rating, Oat, Wild (wild oat (Avena fatua); [26]): 85 | Plant response rating, Oat, Wild (wild oat (Avena fatua); [27]): 85 | Plant response rating, Oat, Wild (wild oat (Avena fatua); [28]): 85 | Plant response rating, Galium [7, 18]: 80 | Plant response rating, Galium [7, 19]: 90 | Plant response rating, Galium [7, 20]: 90 | Plant response rating, Galium [7, 21]: 90 | Plant response rating, Galium [7, 25]: 80 | Plant response rating, Galium [7, 26]: 100 | Plant response rating, Galium [7, 27]: 100 | Plant response rating, Galium [7, 28]: 100 | Plant response rating, Crabgrass, Large [8, 18]: 15 | Plant response rating, Crabgrass, Large [8, 19]: 60 | Plant response rating, Crabgrass, Large [8, 20]: 60 | Plant response rating, Crabgrass, Large [8, 21]: 80 | Plant response rating, Crabgrass, Large [8, 25]: 100 | Plant response rating, Crabgrass, Large [8, 26]: 100 | Plant response rating, Crabgrass, Large [8, 27]: 100 | Plant response rating, Crabgrass, Large [8, 28]: 100 | Plant response rating, Nutsedge, Yellow [9, 18]: 10 | Plant response rating, Nutsedge, Yellow [9, 19]: 10 | Plant response rating, Nutsedge, Yellow [9, 20]: 15 | Plant response rating, Nutsedge, Yellow [9, 21]: 15 | Plant response rating, Nutsedge, Yellow [9, 25]: 0 | Plant response rating, Nutsedge, Yellow [9, 26]: 5 | Plant response rating, Nutsedge, Yellow [9, 27]: 5 | Plant response rating, Chickweed [10, 22]: 75 | Plant response rating, Chickweed [10, 23]: 75 | Plant response rating, Chickweed [10, 24]: 90 | Plant response rating, Chickweed ([10]; 250 g ai/ha, scale 0 to 100): 98

From patent US9302999B2, “Substituted triazoles as herbicides” (E. I. DU PONT DE NEMOURS AND COMPANY, priority 2012, dated 2016)
